US9029325B2, “Amylin analogues and pharmaceutical compositions thereof” (Novo Nordisk A/S, priority 2011, dated 2015)
Starred links: 1 amine or outer side, 2 acyl side, 3 side chain; linkers in the order of their positions; H or OH if unused. Positions of bridges follow the written chain, without caps; N, C: chain ends. Residues, ends and D or L forms follow the SMILES beside them. *: point of attachment. C20 diacid = O=C(O)CCCCCCCCCCCCCCCCCCC(=O)*; γGlu = O=C(O)[C@H](CCC(=O)[*:2])N[*:1]

Assay: Assay (III) ThT fibrillation assay for physical stability
Type: physicochemical
Conditions: for Th T pH 4.0 lag time (h): 37° C., orbital shaking 960 rpm; for ThT pH 4.0 lag time: Table 9
How it was run: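 Freshly prepared samples, pH adjusted with NaOH and HClO4 or HCl, received ThT at 1 μM final and were incubated at 37° C with orbital shaking at 960 rpm. Fluorescence (ex 444 nm, em 485 nm) was read every 20 minutes; […], with polypeptide concentration by reverse HPLC before and after.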

Row | SMILES | Th T pH 4.0 lag time (h) | ThT pH 4.0 lag time [hr]
1 | CC[C@H](C)[C@H](NC(=O)[C@@H]1CCCN1C(=O)CNC(=O)[C@H](Cc1ccccc1)NC(=O)[C@H](CCC(N)=O)NC(=O)[C@H](CCC(N)=O)NC(=O)[C@H](CO)NC(=O)[C@H](CO)NC(=O)[C@H](Cc1c[nH]cn1)NC(=O)[C@H](CCCNC(=N)N)NC(=O)[C@H](CC(C)C)NC(=O)[C@H](Cc1ccccc1)NC(=O)[C@H](CCC(=O)O)NC(=O)[C@H](C)NC(=O)[C@H](CC(C)C)NC(=O)[C@H](CCCNC(=N)N)NC(=O)[C@H](CCC(N)=O)NC(=O)[C@@H](NC(=O)[C@H](C)NC(=O)[C@@H]1CSSC[C@H](NC(=O)[C@H](CCC(=O)O)NC(=O)[C@H](CCCNC(=N)N)NC(=O)[C@H](CCC(=O)O)NC(=O)CC[C@H](NC(=O)CCCCCCCCCCCCCCCCCCC(=O)O)C(=O)O)C(=O)N[C@@H](CC(N)=O)C(=O)N[C@@H]([C@@H](C)O)C(=O)N[C@@H](C)C(=O)N[C@@H]([C@@H](C)O)C(=O)N1)[C@@H](C)O)C(=O)N[C@@H](CC(C)C)C(=O)N1CCC[C@H]1C(=O)N1CCC[C@H]1C(=O)N[C@H](C(=O)N[C@@H](CCC(N)=O)C(=O)N[C@H](C(=O)NCC(=O)N[C@@H](CO)C(=O)N[C@@H](CCC(N)=O)C(=O)N[C@H](C(=O)N1CCC[C@H]1C(N)=O)[C@@H](C)O)C(C)C)[C@@H](C)O [Example 164, N-alpha-[(S)-4-Carboxy-4-(19-carboxynonadecanoylamino)butyryl]-Glu-Arg-[Glu1, Glu14, Arg17, Gln21, Gln22, Gln31, Gln35, Pro37]-pramlintide] ({C20 diacid-γGlu}-ERECNTATCATQRLAEFLRHSSQQFGPILPPTQVGSQTP-NH2; disulfide 4-9 (inferred); C-terminus assumed) | >45 | >45
2 | CC[C@H](C)[C@H](NC(=O)[C@@H]1CCCN1C(=O)CNC(=O)[C@H](Cc1ccccc1)NC(=O)[C@H](CO)NC(=O)[C@H](CO)NC(=O)[C@H](CO)NC(=O)[C@H](CO)NC(=O)[C@H](CCCNC(=N)N)NC(=O)[C@@H](NC(=O)[C@H](CC(C)C)NC(=O)[C@H](Cc1ccccc1)NC(=O)[C@H](CCC(=O)O)NC(=O)[C@H](C)NC(=O)[C@H](CC(C)C)NC(=O)[C@H](CCCNC(=N)N)NC(=O)[C@H](CCC(N)=O)NC(=O)[C@@H](NC(=O)[C@H](C)NC(=O)[C@@H]1CSSC[C@H](NC(=O)[C@H](CCCCN)NC(=O)CC[C@H](NC(=O)CCCCCCCCCCCCCCCCCCC(=O)O)C(=O)O)C(=O)N[C@@H](CC(N)=O)C(=O)N[C@@H]([C@@H](C)O)C(=O)N[C@@H](C)C(=O)N[C@@H]([C@@H](C)O)C(=O)N1)[C@@H](C)O)C(C)C)C(=O)N[C@@H](CC(C)C)C(=O)N[C@@H](CO)C(=O)N[C@@H](CO)C(=O)N[C@H](C(=O)N[C@@H](CC(=O)O)C(=O)N[C@H](C(=O)NCC(=O)N[C@@H](CO)C(=O)N[C@@H](CC(=O)O)C(=O)N[C@H](C(=O)N1CCC[C@H]1C(N)=O)[C@@H](C)O)C(C)C)[C@@H](C)O [Example 170, N-alpha-[(S)-4-Carboxy-4-(19-carboxynonadecanoylamino)butyryl]-[Glu14, Arg18, Ser21, Ser22, Ser28, Ser29, Asp31, Asp35, Pro37]-pramlintide] ({C20 diacid-γGlu}-KCNTATCATQRLAEFLVRSSSSFGPILSSTDVGSDTP-NH2; disulfide 2-7 (inferred); C-terminus assumed) | >45 | >45
